Several values for one entry are separate records, joined by “and”; a condition that tells them apart may be missing. Equal values may be shown once.
Legend:
Format in all cases: cell-based
[1] = tested on: human cardiac fibroblasts from explanted hearts in the terminal stage of cardiac insufficiency; assay: Procollagen type I C-peptide ELISA (collagen synthesis) in fibroblasts from hearts in the terminal stage of cardiac insufficiency (EFH); conditions: 10^−7 mol/l; for Collagen synthesis (procollagen type I C-peptide, Absorption, in % of the controls), MV: mean value over EFH hearts (SEM as spread)
Description: Human cardiac fibroblasts were isolated from seven explanted human hearts in the terminal stage of cardiac insufficiency due to dilated cardiomyopathy. Four cell preparations were also made from healthy donor hearts. The fibroblasts were isolated in sterile 10 cm Petri dishes and cultured as previously described. After about 12 weeks of culturing, the cells reached the second passage with a confluence of approx. 80%. […] The determinations were carried out in duplicate or in triplicate. After the stimulation, the cells were washed, removed from the Petri dishes with 1 ml of PBS and centrifuged down in Eppendorf tubes (100 rpm, 5 min, 4° C.). The supernatant was discarded. 100 ul of lysis buffer (Nonidet P40, 0.5%, SDS 0.5%) were added to about 50 ul of cells and the mixture was incubated on ice for a further 20 minutes. The lysate was centrifuged once again (20 minutes, 1400 rpm, 4° C.) and the supernatant was used for the subsequent experiments. Protein was determined by means of the BCA (bicinchoninic acid) assay. The homogenates were diluted down to a protein concentration of 2 ug/ul.
(§1) Procollagen type I C-peptide in the fibroblasts from all the hearts was determined on a 96-well microtiter plate using a commercially obtainable solid-phase ELISA assay (TaKaRa Biomedicals, Shuzo Co, Ltd.). The assay was carried out in accordance with the manufacturer's instructions. […] The values for the procollagen type I C-peptide were determined using a standard curve of 10-640 ng/ml. The standards were provided by the manufacturer. The absorption values for the stimulations obtained with the controls (buffer) were set at 100%. The absorption values for the stimulated cells were related to the control values obtained for the same heart. In each case, the mean values from duplicate or triplicate determinations were used for the calculations. A bilateral, unpaired t test was used for statistically evaluating the comparison of the stimulation responses in control cells and in cardiac insufficiency cells.

[2] = tested on: human cardiac fibroblasts from healthy donor hearts; assay: Procollagen type I C-peptide ELISA (collagen synthesis) in fibroblasts from control (healthy donor) hearts; conditions: 10^−7 mol/l; for Collagen synthesis (procollagen type I C-peptide, Absorption, in % of the controls), MV: mean value over control (donor) hearts
Description: Human cardiac fibroblasts were isolated from seven explanted human hearts in the terminal stage of cardiac insufficiency due to dilated cardiomyopathy. Four cell preparations were also made from healthy donor hearts. The fibroblasts were isolated in sterile 10 cm Petri dishes and cultured as previously described. After about 12 weeks of culturing, the cells reached the second passage with a confluence of approx. 80%. At this stage, the serum was withdrawn for 48 hours and the cells were subsequently stimulated for various intervals of time (between 6 and 24 hours) with UII, Ang II, TNFalpha, TGFβ, UII+TNFa, (in each case 10^−7 mol/l), or buffer (control). The determinations were carried out in duplicate or in triplicate. After the stimulation, the cells were washed, removed from the Petri dishes with 1 ml of PBS and centrifuged down in Eppendorf tubes (100 rpm, 5 min, 4° C.). The supernatant was discarded. 100 ul of lysis buffer (Nonidet P40, 0.5%, SDS 0.5%) were added to about 50 ul of cells and the mixture was incubated on ice for a further 20 minutes. The lysate was centrifuged once again (20 minutes, 1400 rpm, 4° C.) and the supernatant was used for the subsequent experiments. Protein was determined by means of the BCA (bicinchoninic acid) assay. The homogenates were diluted down to a protein concentration of 2 ug/ul.
as §1

[3] = tested on: fibroblasts from human hearts; assay: Induction of mRNAs (collagen 1, MMP2, TGFbeta1, CTGF) in heart fibroblasts, real-time PCR; conditions: 1 μM, 6 hours stimulation, fibroblasts from three human hearts, GAPDH mRNA as standard reference
Description: Fibroblasts were isolated from human hearts as described in Cell and Tissue Research 286, 145-153 (1996). 96-98% of the resulting cell culture consisted of fibroblasts.
For the purpose of implementing this procedure, heart tissue was cut into small pieces and incubated three times, at 37° C. for 20 minutes, in KHB (Krebs Henseleit buffer) containing 2 mg of collagenase/ml and 2 mg of dispase/ml. The homogenates were combined and then centrifuged. The sediments were taken up in 10 ml of KHB. The cells were added, in portions of in each case 2 to 3 ml, to uncoated plastic containers. The volume was made up to 10 ml with DMEM (Dulbecco's modification of Eagle's medium) containing […] and 10% FCS (fetal calf serum). After having been incubated at 37° C. for 1 hour, the cells were washed twice with PBS (phosphate-buffered saline) and subsequently cultured, at 37° C. and 5% CO2, for approx. 4-8 weeks until 90% confluence had been reached. There then followed two further passages of in each case 4 weeks' duration. The cells employed in the present experiments were used after the second passage and at 70% to 90% confluence (approx. 3 months after isolation).
The reagents for implementing the cell culture techniques were obtained from Gibco BRL Life Technologies. The cells were first of all kept, at 37° C., in serum-free DMEM containing 4000 mg of glucose/l, 2 mM L-glutamine, 100 μg/0.1 mg of penicillin/streptomycin/ml and 0.1% BSA (bovine serum albumin) before angiotensin II or urotensin II was added, […] RNA was then prepared from the cells after 6 hours.
The RNA was isolated by means of standard methods using guanidinium chloride.
Reverse transcriptase (10 units/ng of RNA) was used to transcribe 500 ng of the RNA from each sample into DNA. For degrading the DNA, the entire volume, containing approx. 8-10 μg of RNA, was incubated with DNase I.
The RNAs were quantified using a LightCycler and a Fast Start SYBR Green RT-PCR kit supplied by Roche Molecular Biochemicals. Corresponding kits from other companies such as Applied Biosystems, Bio-Rad or Stratagene are also suitable for the same purpose. […] The quantities were equalized using GAPDH mRNA as the control.
Fibroblasts were isolated from three human hearts and used in the […]. […] The mRNAs (collagen 1, matrix metalloproteinase 2, TGFbeta1 and CTGF) were quantified by real-time PCR using a LightCycler™. […] Real-time PCR (polymerase chain reaction in real time) makes it possible to determine specific nucleic acids quantitatively. […]

Substance	Collagen synthesis (procollagen type I C-peptide, Absorption, in % of the controls) ([1]; EFH heart No. 1, 24 h)	Collagen synthesis (procollagen type I C-peptide, Absorption, in % of the controls) ([1]; EFH heart No. 4, 24 h)	Collagen synthesis (procollagen type I C-peptide, Absorption, in % of the controls) ([1]; EFH heart No. 10, 5 h)	Collagen synthesis (procollagen type I C-peptide, Absorption, in % of the controls) ([1]; EFH heart No. 11, 5 h)	Collagen synthesis (procollagen type I C-peptide, Absorption, in % of the controls), MV ([1]; listed as Ang II)	Collagen synthesis (procollagen type I C-peptide, Absorption, in % of the controls) ([2]; control heart No. 3, 6 h)	Collagen synthesis (procollagen type I C-peptide, Absorption, in % of the controls) ([2]; control heart No. 3, 12 h)	Collagen synthesis (procollagen type I C-peptide, Absorption, in % of the controls) ([2]; control heart No. 5, 6 h)	Collagen synthesis (procollagen type I C-peptide, Absorption, in % of the controls), MV [2]	MMP 2 mRNA ([3]; control 0.43 +/− 0.2)	CTGF mRNA ([3]; control 0.45 +/− 0.27)	Col 1 mRNA ([3]; control 0.56 +/− 0.1)	TGFbeta1 mRNA ([3]; control 0.60 +/− 0.09)	Collagen synthesis (procollagen type I C-peptide, Absorption, in % of the controls), MV [1]	Collagen synthesis (procollagen type I C-peptide, Absorption, in % of the controls), MV ([1]; listed as TGF β)	Collagen synthesis (procollagen type I C-peptide, Absorption, in % of the controls) ([2]; control heart No. 6, 6 h)	Collagen synthesis (procollagen type I C-peptide, Absorption, in % of the controls) ([1]; EFH heart No. 12, 12 h)	Collagen synthesis (procollagen type I C-peptide, Absorption, in % of the controls) ([1]; EFH heart No. 13, 12 h)	Collagen synthesis (procollagen type I C-peptide, Absorption, in % of the controls) ([1]; EFH heart No. 14, 12 h)	Collagen synthesis (procollagen type I C-peptide, Absorption, in % of the controls), MV ([1]; listed as TNFalpha)
angiotensin II (DRVYIHPF; Angiotensin-2; UniProt P01019 25-32, looked up) [AII, reference compound]	142 % of the controls	471 % of the controls	94 % of the controls	113 % of the controls	205+/−67 % of the controls and 205 % of the controls	84 % of the controls	92 % of the controls	88 % of the controls	88 % of the controls	0.22 +/− 0.1	0.34 +/− 0.9	0.56 +/− 0.27	0.71 +/− 0.07	–	–	–	–	–	–	–
TGFβ	166 % of the controls	377 % of the controls	142 % of the controls	123 % of the controls	–	84 % of the controls	123 % of the controls	71 % of the controls	97 % of the controls	–	–	–	–	202 % of the controls	202+/−52 % of the controls	110 % of the controls	–	–	–	–
TNFa	166 % of the controls	262 % of the controls	67 % of the controls	91 % of the controls	–	81 % of the controls	92 % of the controls	77 % of the controls	86 % of the controls	–	–	–	–	139 % of the controls	–	92 % of the controls	107 % of the controls	126 % of the controls	190 % of the controls	139+/−26 % of the controls

— US7348155B2, “Method for identifying compounds for treating aging processes in the coronary circulatory system” (Sanofi-Aventis Deutschland GmbH, priority 2001, dated 2008)
